# Assay results: article PMC4145680 (mBio, 2014)
# Target: E. coli SQR (pFAS, SdhABCD^+) (Escherichia coli, UniProt P0AC41)
# Experiment: PES-DCIP assay and Clark O2 electrode, IMVs
# Format: biochemical
# Conditions: pH 7.5 (50 mM MOPS)
# Chain of E. coli SQR (pFAS, SdhABCD^+) (P0AC41 whole entry): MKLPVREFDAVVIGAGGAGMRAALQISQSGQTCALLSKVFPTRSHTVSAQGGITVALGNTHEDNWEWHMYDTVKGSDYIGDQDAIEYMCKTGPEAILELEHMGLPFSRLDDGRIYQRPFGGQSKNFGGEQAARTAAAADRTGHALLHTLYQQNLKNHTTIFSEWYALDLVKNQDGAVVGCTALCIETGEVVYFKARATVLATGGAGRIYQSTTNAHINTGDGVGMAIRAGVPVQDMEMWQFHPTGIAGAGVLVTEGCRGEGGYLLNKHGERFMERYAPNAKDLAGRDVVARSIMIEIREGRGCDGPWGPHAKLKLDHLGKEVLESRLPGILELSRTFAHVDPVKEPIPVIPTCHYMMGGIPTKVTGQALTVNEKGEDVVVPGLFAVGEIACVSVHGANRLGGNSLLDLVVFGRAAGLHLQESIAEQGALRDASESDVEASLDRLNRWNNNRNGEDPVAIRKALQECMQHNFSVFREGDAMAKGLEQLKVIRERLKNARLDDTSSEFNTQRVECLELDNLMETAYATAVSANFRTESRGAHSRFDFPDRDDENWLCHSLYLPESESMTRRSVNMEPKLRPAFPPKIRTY
# Chain of E. coli SQR (pFAS, SdhABCD^+) (P07014 whole entry partner): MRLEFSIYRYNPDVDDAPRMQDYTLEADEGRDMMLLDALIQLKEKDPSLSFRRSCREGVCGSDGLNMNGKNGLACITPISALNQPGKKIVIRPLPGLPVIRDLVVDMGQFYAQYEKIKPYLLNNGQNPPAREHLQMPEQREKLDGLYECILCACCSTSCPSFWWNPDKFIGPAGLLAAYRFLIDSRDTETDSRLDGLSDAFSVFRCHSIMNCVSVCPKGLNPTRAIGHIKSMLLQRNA
# Chain of E. coli SQR (pFAS, SdhABCD^+) (P69054 whole entry partner): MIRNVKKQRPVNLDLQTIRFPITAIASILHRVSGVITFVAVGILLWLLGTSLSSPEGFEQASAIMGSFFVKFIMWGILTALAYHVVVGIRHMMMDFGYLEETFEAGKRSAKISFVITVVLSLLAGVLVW
# Chain of E. coli SQR (pFAS, SdhABCD^+) (P0AC44 whole entry partner): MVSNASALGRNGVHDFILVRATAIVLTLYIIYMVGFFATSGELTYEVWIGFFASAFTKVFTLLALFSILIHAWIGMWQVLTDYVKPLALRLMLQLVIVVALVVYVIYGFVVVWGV
structure (smiles),measurement,value
O=C(O)CCC(=O)O [succinate],"PES-DCIP assay and Clark O2 electrode, IMVs","E. coli strains overexpressing either the SQR operon (pFAS, SdhABCD^+)"
